Assays:
[1] = Reduction of propionyl-CoA in human hepatocytes derived from propionic acidemia patient at 100 uM pretreated for 30 mins followed by 13C-isoleucine addition and measured after 1 hr by MS/MS analysis relative to control; type: functional, Hepatocyte; set-up: scale not given: the % may be the effect or the level left; conditions: time 90 min, 1.5 h
[2] = Reduction of propionyl-CoA in human hepatocytes derived from propionic acidemia patient pretreated for 30 mins followed by 13C-isoleucine addition and measured after 1 hr by MS/MS analysis; type: functional, cell-based; conditions: hepatocyte

Row | SMILES | Activity [1] [%] | EC50 [2] [µM]
1 | CCCC(C)C(=O)O (stereo unspecified) | 77 | 12.6
2 | CC(CCO)C(=O)O (stereo unspecified) | 66 | > 100
3 | CCC(CC)C(=O)O | 67 | 33.7
4 | CCCC(CCC)C(=O)OC | 63 | > 100
5 | O=C(O)C1CCCC1 | 42 | 12.3
6 | O=C(O)C1CCC1 | 49 | 55.4
7 | O=C(O)CCCC(F)(F)F | 65 | 9.91
8 | CC1(CC(=O)O)CC1 | 65 | 15.5
9 | CCC(C)(C)C(N)=O | 57 | > 100
10 | CSCCCC(=O)O | 78 | 18.9
11 | CCCC(CC)C(=O)O (stereo unspecified) | 98 | 1.23
12 | COCC(C)(C)C(=O)O | 75 | 2.69
13 | CNCCC(=O)O | 64 | 6.55
14 | CCCC(C)(C)C(=O)O | 96 | 0.76
15 | CCC(C)(C)C(=O)OC | 91 | 1.73
16 | O=C(O)C1CC1 [CYCLOPROPANE CARBOXYLIC ACID] | 66 | 23.3
17 | CC(C)(C)C(=O)O [PIVALATE] | 77 | 5.53
18 | CC(C)(C)CC(=O)O [T-BUTYLACETIC ACID] | 97 | 0.91

Reference: ChEMBL document CHEMBL4808180, “Identification of 2,2-Dimethylbutanoic Acid (HST5040), a Clinical Development Candidate for the Treatment of Propionic Acidemia and Methylmalonic Acidemia” (J Med Chem, 2021)
